Read-outs that look alike come from different tables or passages of the source.

The results in this text go back to patent US8304447B2, “2-acylaminopropoanol-type glucosylceramide synthase inhibitors” (Genzyme Corporation, priority 2007, dated 2012).

The experiment relates to GM3. The experiment in a line: GM3 Elisa assay. The experiment is classed as cell-based. The conditions noted are these: B16-FO cells, read-out: IC50_uM_Mean. The procedure: B16-FO cells from ATCC (American Tissue Culture Collection) were grown in DMEM media (ATCC) with 10% Fetal Bovine Serum (Hyclone) and Pen/Step/Glutamine (Biowhittaker). 4000 cells per well were plated on collagen coated plates (BD) and allowed to attach for 6 hours in an incubator (37 degrees, 5% CO2). After 6 hours the compounds and controls were added to the wells, the plates mixed and returned to the incubator for 2 days. Day of assay the cells were fixed for 20 minutes with 1% formaldehyde and then washed with Tris Buffered Saline (TBS) 3 times, 150 μl of TBS was left in the wells and 50 μl of goat serum (Invitrogen) was added, the plates mixed and incubated for 1 hour at room temperature. The plates were flicked and the cells incubated with the monoclonal Antibody to GM3 (NeuAc) (Cosmo) for 45 minutes as room temperature. The plates were then washed 3 times with TBS, leaving 150 μl of TBS in the wells and Peroxidase AffinPure F (ab′) 2 frag Gt Anti-mouse IgM, μ Chain Specific (Jackson Immuno Research) was added in 50 μl, the plates mixed and incubated for 45 minutes at room temperature. The plates were washed 3 times with TBS, flicked and blotted and 100 μl of Quantablu (Pierce) was added to the wells and incubated for 1 hour then read on a Fluorometer at Ex 325 and Em 420. The data was then analyzed using standard programs.

Where [1] appears, read: 48 h, Table 1, 2 days incubation.
The mark [2] stands for this setting: 48 h, Table 2, 2 days incubation.

On to `O=C(N[C@H](CN1CCCC1)[C@H](O)c1ccc2c(c1)OCCO2)c1ccc(-c2ccccc2)cc1` [Compound 12, N-((1R,2R)-1-(2,3-dihydrobenzo[β][1,4]dioxin-6-yl)-1-hydroxy-3-(pyrrolidin-1-yl)propan-2-yl)biphenyl-4-carboxamide], for which, under setting [1], the IC50 fell in the range of 100 to 1000 nM.

Take `O=C(N[C@H](CN1CCCC1)[C@H](O)c1ccc(Cl)cc1)OCc1ccccc1` [Compound 379]: the IC50 (Table 3 (IC 50 Values)) was 100 to 1000 nM. As to `COc1ccc(C(=O)CCCC(=O)N[C@H](CN2CCCC2)[C@H](O)c2ccc(C(F)(F)F)cc2)cc1` [Compound 490], the IC50 (Table 3 (IC 50 Values)) lay within 3000 to 10000 nM. Regarding `COc1ccc(C(=O)CCCCC(=O)N[C@H](CN2CCCC2)[C@H](O)c2ccc(OCCCOc3ccccc3F)cc2)cc1` [Compound 367], under “Table 3 (IC 50 Values)”, the IC50 is not above 100 nM. Regarding `O=C(CCC1CCOCC1)N[C@H](CN1CCCC1)[C@H](O)c1ccc2c(c1)OCCO2` [Compound 582], the IC50 (Table 3 (IC 50 Values)) was 3000 to 10000 nM.

For `COc1ccc(C(=O)CCCCC(=O)N[C@H](CN2CCCC2)[C@H](O)c2ccc(OCC3CCC3)cc2)cc1` [Compound 421], the IC50 (Table 3 (IC 50 Values)) was not above 100 nM. Same read-out and setting: the same measure for `COCCc1ccc([C@@H](O)[C@@H](CN2CCCC2)NC(=O)CCCC(=O)c2ccc(OC)cc2)cc1` [Compound 355]: 1000 to 3000 nM. `CCOc1ccc(C(=O)CCC(=O)N[C@H](CN2CCCC2)[C@H](O)c2ccc3c(c2)OCCO3)cc1` [Compound 127, N-((1R,2R)-1-(2,3-dihydrobenzo[b][1,4]dioxin-6-yl)-1-hydroxy-3-(pyrrolidin-1-yl)propan-2-yl)-4-(4-ethoxyphenyl)-4-oxobutanamide]: the IC50 under setting [1] fell in the range of 100 to 1000 nM.

On to `COCCc1ccc([C@@H](O)[C@@H](CN2CCCC2)NC(=O)CCCCCC(=O)c2ccc(OC)cc2)cc1` [Compound 479], for which, under “Table 3 (IC 50 Values)”, the IC50 was not above 100 nM. For the compound `COc1ccc(OCCC(=O)N[C@H](CN2C[C@@H]3CC[C@H]2C3)[C@H](O)c2ccc3c(c2)OCCO3)cc1` [Compound 544], the IC50 (Table 3 (IC 50 Values)) lay in the range of 100 to 1000 nM. With `CCCCCCCC(=O)N[C@H](CN1CC[C@@H](F)C1)[C@H](O)c1ccc2c(c1)OCCO2` [Compound 504], the IC50 (Table 3 (IC 50 Values)) lay in the range of 100 to 1000 nM. Take `COc1ccc(C(=O)CCCCCC(=O)N[C@H](CN2CCC[C@H]2C)[C@@H](O)c2ccc3c(c2)OCCO3)cc1` [Compound 529]: the IC50 (Table 3 (IC 50 Values)) was not above 100 nM. With `CCCCCCCC(=O)N[C@H](CN1CCCC1)[C@H](O)c1ccc(OCc2ccccc2)cc1` [Compound 703], the IC50 (Table 3 (IC 50 Values)) was not above 100 nM. For `COc1ccc(C(=O)CCCCC(=O)N[C@H](CN2CCCC2)[C@H](O)c2ccc(OC)cc2)cc1` [Compound 269], under setting [2], the IC50 is not above 100 nM. `COc1ccc(C(=O)CCCCC(=O)N[C@H](CN2CCCC2)[C@H](O)c2ccc(OCCOc3cccc(C(F)(F)F)c3)cc2)cc1` [Compound 365]: the IC50 (Table 3 (IC 50 Values)) was not above 100 nM. In the case of `COc1ccc(C(=O)CCCCCC(=O)N[C@H](CN2CCCC2)[C@H](O)c2ccc(OCc3ccccc3)cc2)cc1` [Compound 704], the IC50 (Table 3 (IC 50 Values)) was not above 100 nM. Turning to `CCCCCCCCC(=O)N[C@H](CN1CCCC1)[C@H](O)c1ccc(OC)c(Cl)c1` [Compound 708], the IC50 (Table 3 (IC 50 Values)) is not above 100 nM. As for `O=C(CCOc1ccc(Cl)cc1)N[C@H](CN1CCCC1)[C@H](O)c1ccc2c(c1)OCCO2` [Compound 57, 3-(4-chlorophenoxy)-N-((1R,2R)-1-(2,3-dihydrobenzo[β][1,4]dioxin-6-yl)-1-hydroxy-3-(pyrrolidin-1-yl)propan-2-yl)propanamide], the IC50 under setting [1] is not above 100 nM. With `CCCCCCOc1ccc([C@@H](O)[C@@H](CN2C3CCC2CC3)NC(=O)CCCCC(=O)c2ccc(OC)cc2)cc1` [Compound 370], the IC50 (Table 3 (IC 50 Values)) is not above 100 nM. Turning to `CCCCCCCC(=O)N[C@@H](CN1CCCC1)[C@H](O)c1ccc2c(c1)OCCO2` [Compound 672], the IC50 (Table 3 (IC 50 Values)) was in the range of 3000 to 10000 nM.

Consider `COc1ccc(C(=O)CCCCCC(=O)N[C@H](CN2CCCC2)[C@H](O)c2cc(OC)c(OC)c(OC)c2)cc1` [Compound 668], for which the IC50 (Table 3 (IC 50 Values)) lay within 1000 to 3000 nM. Turning to `COc1ccc(OCCC(=O)N[C@H](CN2CCCC2)[C@H](O)c2sccc2C)cc1` [Compound 363], the IC50 (Table 3 (IC 50 Values)) was 100 to 1000 nM.

As for `COc1ccc(CCC(=O)N[C@H](CN2CCCC2)[C@H](O)c2ccc3c(c2)OCCO3)cc1Cl` [Compound 92, 3-(3-chloro-4-methoxyphenyl)-N-((1R,2R)-1-(2,3-dihydrobenzo[β][1,4]dioxin-6-yl)-1-hydroxy-3-(pyrrolidin-1-yl)propan-2-yl)propanamide], the IC50 under setting [1] is not above 100 nM. As to `COc1ccc(OCCCC(=O)N[C@H](CN2CC[C@H](O)C2)[C@H](O)c2ccc(OCCCCF)cc2)cc1` [Compound 501], the IC50 (Table 3 (IC 50 Values)) is not above 100 nM. Regarding `CCCCCCOc1ccc([C@@H](O)[C@@H](CN2C3CCC2CC3)NC(=O)CCCCCC(=O)c2ccc(OC)cc2)cc1` [Compound 374], the IC50 (Table 3 (IC 50 Values)) was not above 100 nM. Consider `O=C(CC1CCOCC1)N[C@H](CN1CCCC1)[C@H](O)c1ccc2c(c1)OCCO2` [Compound 580], for which the IC50 (Table 3 (IC 50 Values)) lay within 3000 to 10000 nM. On to `COc1ccc(C(=O)CCCCCC(=O)N[C@H](CN2CCCC2)[C@H](O)c2ccc(C)c(F)c2)cc1` [Compound 350], for which the IC50 (Table 3 (IC 50 Values)) was not above 100 nM.

For the compound `COc1ccc(C(=O)CCCCCC(=O)NCCN2CCCC2)cc1` [Compound 536], the IC50 (Table 3 (IC 50 Values)) was in the range of 3000 to 10000 nM.

In the case of `COCCc1ccc([C@@H](O)[C@@H](CN2CCCC2)NC(=O)CCCCC(=O)c2ccc(OC)cc2)cc1` [Compound 357], the IC50 (Table 3 (IC 50 Values)) was in the range of 100 to 1000 nM. Consider `Cc1ccc(OCCC(=O)N[C@H](CN2CCCC2)[C@H](OC(=O)CCOc2ccc(C)cc2)c2ccc3c(c2)OCCO3)cc1` [Compound 252], for which, under setting [2], the IC50 was in the range of 100 to 1000 nM. For the compound `O=C(CCCOc1ccc(F)cc1)N[C@H](CN1CC[C@H](O)C1)[C@H](O)c1ccc2c(c1)OCCO2` [Compound 656], the IC50 (Table 3 (IC 50 Values)) was not above 100 nM. Consider `COCCCCCCCC(=O)N[C@H](CN1CC[C@H](O)C1)[C@H](O)c1ccc(OC(C)C)cc1` [Compound 456], for which the IC50 (Table 3 (IC 50 Values)) is not above 100 nM.

For the compound `Cc1ccccc1CC(=O)N[C@H](CN1CCCC1)[C@H](O)c1ccc2c(c1)OCCO2` [Compound 35, N-((1R,2R)-1-(2,3-dihydrobenzo [β][1,4]dioxin-6-yl)-1-hydroxy-3-(pyrrolidin-1-yl)propan-2-yl)-2-o-tolylacetamide], the IC50 under setting [1] was in the range of 1000 to 3000 nM. Turning to `COc1ccc(C(=O)CCCCC(=O)N[C@H](CN2CCCC2)[C@H](O)c2ccc(OCCC3CCCCC3)cc2)cc1` [Compound 419], the IC50 (Table 3 (IC 50 Values)) was not above 100 nM.

With `COc1ccc(C(=O)CCCCC(=O)N[C@H](CN2CCCC2)[C@H](O)c2ccc(OCCCOc3ccccc3)cc2)cc1` [Compound 433], the IC50 (Table 3 (IC 50 Values)) is not above 100 nM. On to `COc1ccc(OCCC(=O)N(Cc2ccc(-c3noc(C)n3)cc2)[C@H](CN2CCCC2)[C@H](O)c2ccc(O)cc2)cc1` [Compound 720], for which the IC50 (Table 3 (IC 50 Values)) lay within 3000 to 10000 nM.

Regarding `COc1ccc(C(=O)CCCCC(=O)N[C@H](CN2CCCC2)[C@H](O)c2ccc3c(c2)OCCO3)cc1` [Compound 141, N-((1R,2R)-1-(2,3-dihydrobenzo[β][1,4]dioxin-6-yl)-1-hydroxy-3-(pyrrolidin-1-yl)propan-2-yl)-6-(4-methoxyphenyl)-6-oxohexanamide], the IC50 under setting [1] is not above 100 nM. On the same count and under the same terms, in the case of `O=C(Nc1ccc(-c2ccccc2)cc1)N[C@H](CN1CCCC1)[C@H](O)c1ccc2c(c1)OCCO2` [Compound 70, 1-(biphenyl-4-yl)-3-((1R,2R)-1-(2,3-dihydrobenzo[β][1,4]dioxin-6-yl)-1-hydroxy-3-(pyrrolidin-1-yl)propan-2-yl)urea] it was not above 100 nM. On to `CCCCCCCC(=O)N[C@H](CN1CCCC1)[C@H](OC)c1ccc2c(c1)OCCO2` [Compound 315], for which the IC50 under setting [2] was in the range of 100 to 1000 nM. For the compound `CCCCCCCC(=O)N[C@H](CN1CCCC1)[C@H](O)c1ccc(Cl)cc1` [Compound 385], the IC50 (Table 3 (IC 50 Values)) lay within 1000 to 3000 nM. `Cc1noc(CCCCC(=O)N[C@H](CN2CC[C@@H](F)C2)[C@H](O)c2ccc3c(c2)OCCO3)n1` [Compound 646]: the IC50 (Table 3 (IC 50 Values)) was 3000 to 10000 nM. `CCCCCCCC(=O)N[C@H](CN1CCCCC1C)[C@H](O)c1ccc2c(c1)OCCO2` (stereo partly shown) [Compound 605]: the IC50 (Table 3 (IC 50 Values)) lay in the range of 3000 to 10000 nM.

As for `O=C(CCCCCC(=O)c1ccc(F)cc1)N[C@H](CN1CCCC1)[C@H](O)c1ccc2c(c1)OCCO2` [Compound 628], where the note is “Table 3 (IC 50 Values)”, the IC50 is not above 100 nM. Turning to `O=C(CCCCC(=O)c1ccc(F)cc1)N[C@H](CN1CCCC1)[C@H](O)c1ccc2c(c1)OCCO2` [Compound 640], under “Table 3 (IC 50 Values)”, the IC50 was in the range of 100 to 1000 nM.

With `CCCCCCCC(=O)N[C@H](CN1CC[C@H](c2ccccc2)C1)[C@H](O)c1ccc2c(c1)OCCO2` [Compound 506], the IC50 (Table 3 (IC 50 Values)) was 3000 to 10000 nM. Take `COc1ccc(C(=O)CCCCCC(=O)N[C@H](CN2CC3CC3C2)[C@H](O)c2ccc3c(c2)OCCO3)cc1` (stereo partly shown) [Compound 537]: under “Table 3 (IC 50 Values)”, the IC50 was not above 100 nM. In the case of `COCCc1ccc(OCCC(=O)N[C@H](CN2CCCC2)[C@H](O)c2ccc3c(c2)OCCO3)cc1` [Compound 202, N-((1R, R)-1-(2,3-dihydrobenzo[β][1,4]dioxin-6-yl)-1-hydroxy-3-(pyrrolidin-1-yl)propan-2-yl)-3-(4-(2-methoxyethyl)phenoxy)propanamide (2R, R)-2,3-dihydroxysuccinate], the IC50 under setting [1] lay within 100 to 1000 nM. As for `COc1ccc(OCCC(=O)N[C@H](CN2CC[C@@H](F)C2)[C@H](O)c2ccc(OC(C)C)cc2)cc1` [Compound 452], where the note is “Table 3 (IC 50 Values)”, the IC50 fell in the range of 100 to 1000 nM. With `CCCCC(=O)CCCCCCC(=O)N[C@H](CN1CCCC1)[C@H](O)c1ccc2c(c1)OCCO2` [Compound 663], the IC50 (Table 3 (IC 50 Values)) was 100 to 1000 nM.
